The target of one data set is T1, hM5 (Homo sapiens, UniProt P08912).
T1 sequence (P08912 1-532): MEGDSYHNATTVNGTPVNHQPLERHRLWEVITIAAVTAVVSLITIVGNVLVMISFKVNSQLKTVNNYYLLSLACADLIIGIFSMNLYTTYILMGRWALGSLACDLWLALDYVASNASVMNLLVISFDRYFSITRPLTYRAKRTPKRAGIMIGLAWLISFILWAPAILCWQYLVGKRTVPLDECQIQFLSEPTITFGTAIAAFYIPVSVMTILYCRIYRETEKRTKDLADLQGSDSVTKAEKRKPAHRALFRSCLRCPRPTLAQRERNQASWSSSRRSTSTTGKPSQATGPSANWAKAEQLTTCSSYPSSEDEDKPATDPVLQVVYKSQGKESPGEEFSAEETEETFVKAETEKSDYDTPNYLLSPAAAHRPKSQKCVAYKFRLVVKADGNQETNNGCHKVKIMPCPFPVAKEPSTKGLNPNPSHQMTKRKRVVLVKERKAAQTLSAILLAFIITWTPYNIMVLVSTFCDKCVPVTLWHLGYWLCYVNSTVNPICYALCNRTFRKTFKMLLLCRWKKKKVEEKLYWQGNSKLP
In words: Calcium mobilization assay with hM5-CHO cells, EC80 acetylcholine. Format: cell-based. The following applies: for hM5 IC50: antagonist.

Data set [1] can be described thus: In vitro clearance. Format: in vitro ADME, human. The following applies: for Predicted CLhep: human (h).
Data set [2] can be described thus: In vitro clearance. Format: in vitro ADME, rat. As to conditions: for Predicted CLhep: rat (r).
Another data set concerns the target T2, hM4 (Homo sapiens, UniProt P08173).
T2 sequence (P08173 1-479): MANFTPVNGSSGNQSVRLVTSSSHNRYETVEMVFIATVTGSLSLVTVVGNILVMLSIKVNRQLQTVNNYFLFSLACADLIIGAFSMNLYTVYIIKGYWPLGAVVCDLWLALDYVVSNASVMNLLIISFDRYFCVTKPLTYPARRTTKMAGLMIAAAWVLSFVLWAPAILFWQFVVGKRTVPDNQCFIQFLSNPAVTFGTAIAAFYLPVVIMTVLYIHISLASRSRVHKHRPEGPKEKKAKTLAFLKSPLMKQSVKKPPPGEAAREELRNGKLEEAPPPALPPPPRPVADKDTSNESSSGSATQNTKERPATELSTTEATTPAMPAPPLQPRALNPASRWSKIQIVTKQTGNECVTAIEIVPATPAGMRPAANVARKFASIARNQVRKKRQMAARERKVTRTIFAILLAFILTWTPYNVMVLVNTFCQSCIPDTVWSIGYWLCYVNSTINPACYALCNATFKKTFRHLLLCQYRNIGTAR
In words: Subtype selectivity, hM4. Format: cell-based.

A further data set has as its target T3, hM2 (Homo sapiens, UniProt P08172).
T3 sequence (P08172 1-466): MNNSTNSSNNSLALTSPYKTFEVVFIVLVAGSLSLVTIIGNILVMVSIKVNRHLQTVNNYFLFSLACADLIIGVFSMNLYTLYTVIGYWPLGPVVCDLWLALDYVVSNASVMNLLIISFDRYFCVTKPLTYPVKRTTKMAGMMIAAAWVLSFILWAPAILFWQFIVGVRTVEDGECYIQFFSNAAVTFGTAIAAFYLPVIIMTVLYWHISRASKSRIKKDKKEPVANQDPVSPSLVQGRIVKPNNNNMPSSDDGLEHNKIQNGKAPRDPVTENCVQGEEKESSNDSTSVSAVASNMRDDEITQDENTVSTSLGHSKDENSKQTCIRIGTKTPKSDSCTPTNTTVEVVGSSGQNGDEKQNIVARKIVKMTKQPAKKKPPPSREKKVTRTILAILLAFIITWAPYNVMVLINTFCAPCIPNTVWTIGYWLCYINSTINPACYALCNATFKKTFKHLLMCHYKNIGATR
In words: Subtype selectivity, hM2. Format: cell-based. As to conditions: printed as hM2-4.

The target of the next data set is hM3 (Homo sapiens, UniProt P20309). In words: Subtype selectivity, hM3. It is filed as cell-based. As to conditions: printed as hM2-4.
Chain of hM3 (P20309 whole entry): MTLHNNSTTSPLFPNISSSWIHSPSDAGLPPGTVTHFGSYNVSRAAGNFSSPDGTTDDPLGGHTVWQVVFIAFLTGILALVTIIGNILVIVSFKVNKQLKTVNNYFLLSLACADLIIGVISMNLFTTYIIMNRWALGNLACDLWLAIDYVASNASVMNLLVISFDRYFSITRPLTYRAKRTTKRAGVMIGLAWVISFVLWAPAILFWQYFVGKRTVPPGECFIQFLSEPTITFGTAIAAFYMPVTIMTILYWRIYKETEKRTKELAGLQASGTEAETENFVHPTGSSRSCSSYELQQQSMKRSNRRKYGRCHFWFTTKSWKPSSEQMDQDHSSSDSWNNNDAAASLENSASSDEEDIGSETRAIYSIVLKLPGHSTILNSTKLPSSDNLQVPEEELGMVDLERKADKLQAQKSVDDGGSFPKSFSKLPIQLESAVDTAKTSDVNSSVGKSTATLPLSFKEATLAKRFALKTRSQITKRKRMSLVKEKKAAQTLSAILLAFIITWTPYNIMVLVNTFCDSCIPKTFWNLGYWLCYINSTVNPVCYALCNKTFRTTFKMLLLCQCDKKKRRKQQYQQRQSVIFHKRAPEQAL

Marks after values point to notes of the source that are not given here.

As to `C[C@@H]1CN(S(=O)(=O)c2ccc3c(c2)CCO3)CC[C@@H]1C(=O)Nc1ccc2scnc2c1` (racemic) [(rac)-22], at hM5, the “hM5 ACh Min” value was 3^c %. Also, the “Predicted CLhep” value is listed as 19 mL/min/kg in “In vitro clearance [1]” and 62 mL/min/kg in “In vitro clearance [2]”.
Taken in the same sequence, the figures for `C[C@H]1CN(S(=O)(=O)c2ccc3c(c2)CCO3)CC[C@@H]1C(=O)Nc1ccc2scnc2c1` (racemic) [(rac)-23] were 3^c %, 17 mL/min/kg and 61 mL/min/kg.
For `C[C@@H]1C[C@H](C(=O)Nc2ccc3scnc3c2)CCN1S(=O)(=O)c1ccc2c(c1)CCO2` (racemic) [(rac)-24], in that order: 2^c %, 19 mL/min/kg and 62 mL/min/kg.
As to `C[C@@H]1C[C@@H](C(=O)Nc2ccc3scnc3c2)CCN1S(=O)(=O)c1ccc2c(c1)CCO2` (racemic) [(rac)-25], the “Predicted CLhep” value in “In vitro clearance [1]” was 18 mL/min/kg; in “In vitro clearance [2]”, 62 mL/min/kg.
Taken in the same sequence, the figures for `CC1COc2ccc(S(=O)(=O)N3CCC(C(=O)Nc4ccc5scnc5c4)CC3)cc21` (racemic) [(rac)-26] were 19 mL/min/kg and 66 mL/min/kg.
For `Cc1nn(C)cc1S(=O)(=O)N1CC[C@H](C(=O)Nc2ccc3scnc3c2)[C@@H](F)C1` (racemic) [(rac)-30a], in that order: 5 mL/min/kg and 55 mL/min/kg.
For `Cn1ncc(S(=O)(=O)N2CC[C@H](C(=O)Nc3ccc4scnc4c3)[C@@H](F)C2)c1Cl` (racemic) [(rac)-30b], in that order: 4 mL/min/kg and 29 mL/min/kg.
On to `Cc1ncc(S(=O)(=O)N2CC[C@H](C(=O)Nc3ccc4scnc4c3)[C@@H](F)C2)s1` (racemic) [(rac)-30c], for which the “Predicted CLhep” value in the data set “In vitro clearance [1]” is recorded as 5 mL/min/kg; in the data set “In vitro clearance [2]”, 37 mL/min/kg.
With `O=C(Nc1ccc2occc2c1)C1CCN(S(=O)(=O)c2ccc3c(c2)CCO3)CC1` [28a], at hM5, the “hM5 ACh Min” value was “inactive” and the “hM5 IC50” value is “inactive”.
For the compound `O=C(Nc1ccc2ncnn2c1)C1CCN(S(=O)(=O)c2ccc3c(c2)CCO3)CC1` [28b], at hM5, the “hM5 ACh Min” value is “inactive” and the “hM5 IC50” value was “inactive”.
With `O=C(Nc1ccc2nncn2c1)C1CCN(S(=O)(=O)c2ccc3c(c2)CCO3)CC1` [28c], on hM5, the “hM5 ACh Min” value is “inactive” and the “hM5 IC50” value was “inactive”.
As for `O=C(Nc1cnc2sccc2c1)C1CCN(S(=O)(=O)c2ccc3c(c2)CCO3)CC1` [28d], at hM5, the “hM5 ACh Min” value was “inactive” and the “hM5 IC50” value is “inactive”.
Consider `O=C(Nc1ccc2nccnc2c1)C1CCN(S(=O)(=O)c2ccc3c(c2)CCO3)CC1` [28e], for which, at hM5, the “hM5 ACh Min” value was “inactive” and the “hM5 IC50” value was “inactive”.
With `O=C(Nc1ccc2cccnc2c1)C1CCN(S(=O)(=O)c2ccc3c(c2)CCO3)CC1` [28f], the “Predicted CLhep” value in the data set “In vitro clearance [1]” is listed as 17 mL/min/kg; in the data set “In vitro clearance [2]” it was 64 mL/min/kg.
For `O=C(Nc1ccc2snnc2c1)C1CCN(S(=O)(=O)c2ccc3c(c2)CCO3)CC1` [28g], in that order: 18 mL/min/kg and 64 mL/min/kg.
As usually defined, the CLint scaled is the capacity of the preparation to metabolise the compound, expressed as a volume cleared per time. On to `O=C(Nc1ccc2scnc2c1)C1CCN(S(=O)(=O)c2ccc3ncsc3c2)CC1` [29a], for which the CLint scaled in the data set “In vitro clearance [1]” (human) is 13 mL/min/kg; in “In vitro clearance [2]” (rat), 38 mL/min/kg. The “Predicted CLhep” value in the data set “In vitro clearance [1]” was 13 mL/min/kg; in the data set “In vitro clearance [2]”, 38 mL/min/kg.
As for `O=C(Nc1ccc2scnc2c1)C1CCN(S(=O)(=O)c2ccc3ncccc3c2)CC1` [29b], the “Predicted CLhep” value in “In vitro clearance [1]” was 10 mL/min/kg; in the data set “In vitro clearance [2]” it was 53 mL/min/kg.
Regarding `O=C(Nc1ccc2scnc2c1)C1CCN(S(=O)(=O)c2ccc(Cl)nc2)CC1` [29c], on hM5, the “hM5 ACh Min” value was 3^b %. Further, the “Predicted CLhep” value in the data set “In vitro clearance [1]” is recorded as 11 mL/min/kg; in “In vitro clearance [2]”, 33 mL/min/kg.
Take `Cc1ccc(S(=O)(=O)N2CCC(C(=O)Nc3ccc4scnc4c3)CC2)cn1` [29d]: the “Predicted CLhep” value in “In vitro clearance [1]” is 4 mL/min/kg; in the data set “In vitro clearance [2]”, 27 mL/min/kg.
`O=C(Nc1ccc2scnc2c1)C1CCN(S(=O)(=O)c2cccnc2)CC1` [29e]: the “hM5 ACh Min” value at hM5 is reported as 2^b %. Moreover, the “Predicted CLhep” value was 10 mL/min/kg in the data set “In vitro clearance [1]” and 52 mL/min/kg in “In vitro clearance [2]”.
Take `Cc1nn(C)cc1S(=O)(=O)N1CCC(C(=O)Nc2ccc3scnc3c2)CC1` [29f]: the “Predicted CLhep” value in the data set “In vitro clearance [2]” is given as 28 mL/min/kg.
As for `O=C(Nc1ccc2scnc2c1)C1CCN(S(=O)(=O)c2ccc(Cl)s2)CC1` [compound 4], the “hM4 IC50” value at hM4 was “inactive”. For the same compound, on hM2, the “hM2 IC50” value was “inactive”. Further, at hM3, the “hM3 IC50” value is “inactive”.
`Cn1ccnc1NC(=O)C1CCN(S(=O)(=O)c2ccc3c(c2)CCO3)CC1` [compound 6]: the “hM5 IC50” value at hM5 is “inactive”.
`Cc1nc2cc(NC(=O)C3CCN(S(=O)(=O)c4ccc5c(c4)CCO5)CC3)ccc2s1` [compound 20]: at hM5, the “hM5 ACh Min” value is reported as 19^c %. The results for the “Predicted CLhep” value in the data set “In vitro clearance [1]” and in “In vitro clearance [2]” were 16 mL/min/kg and 60 mL/min/kg, respectively.

Values taken from paper PMC10939060 (Bioorganic & medicinal chemistry letters, 2022).
